Assays:
[1] = tested on: Caco-2 and SkMel-28 cells; assay: Cellular uptake of ECG, TMECG and QM; format: in vitro ADME, human; details: 50 μM catechins
Procedure: Cellular uptake was determined by the difference between the initial concentration of catechin and the calculated at specific times in the cellular medium, and expressed as a percentage of catechin at zero time. The values presented are the mean percentage determined from five independent experiments±SD.
For cellular uptake experiments Caco-2 and SkMel-28 cells were grown until reaching 90% confluence. Then, 20 ml of cellular medium containing 50 μM catechins and 0.2 mM ascorbic acid was added and incubated for 60 h in a CO2 incubator. At specified times 1 ml-aliquots were taken and frozen in liquid N2 until the catechin concentrations were determined by HPLC. Catechins were identified by their characteristic elution times and their concentration calculated with respect to calibration curves of known concentrations of catechins.

SkMel-28 cells = assay: Microscopy of melanosome melanin content; format: cell-based, human; details: treated SkMel-28 versus untreated
Procedure: Confluent monolayers of SkMel-28 were harvested with a mixture of 0.05% trypsin, 0.53 mmol/L EDTA and washed once in 0.25 mol/L sucrose by centrifugation at 700×g for 5 min at 4° C. They were then homogenized on ice using 20 strokes of an ice-cold Dounce homogenizer and centrifuged at 700×g for 10 min at 4° C. The resultant postnuclear supernatant was centrifuged at 17,000×g for 15 min at 4° C. to yield a melanosome-enriched granular fraction (17). This fraction was resuspended in 0.5-2 ml of ice-cold 0.25 mol/L sucrose, 10 mmol/L HEPES, pH 7.0 and fixed for 1 h at room temperature in 2% glutaraldehyde, 2% paraformaldehyde in 0.1 mol/L sodium cacodylate buffer, pH 7.3. The fixative was then removed and the samples stored in PBS containing 4% sucrose at 4° C. Samples were subsequently dehydrated with graded alcohols and embedded in epoxy resin. This section were stained with uranyl acetate and lead citrate and examined with a Zeiss EM10 electron microscope.

[2] = tested on: Reduced folate carrier (RFC) mRNA; assay: Real-time PCR of RFC expression in SkMel-28; format: cell-based, human; details: 50 μM, after 24 h of treatment
Procedure: Data were obtained by real time PCR and compared with the relative expression of RFC in normal human skin (zero relative gene expression). Zero time represents the level of RFC in untreated SkMel-28 cells.
PolyA+ mRNA from human adult skin was purchased from Invitrogen. SkMel-28 and HEM polyA+ mRNA was extracted from 5×10^6 cells using the Illustra Quick Prep Micro mRNA purification kit (GE Healthcare). mRNA (200 ng) was used to synthesize cDNA using SuperScript First-Strand Synthesis System (Invitrogen). PCR amplification of 2 μL of the cDNA strand generated was carried out in a total volume of 50 μL using an Eppendorf Mastercycler Thermal Cycler. Samples were amplified by 40 cycles at 95° C. (1 min), 62° C. (1 min) and 72° C. (1 min). The amplified PCR products were subjected to electrophoresis in 3% agarose gel and stained with ethidium bromide.
cDNA samples (1 μL) were used for real-time PCR in a total volume of 20 μL using SYBR Green Reagent (Applied Biosystems) and specific primers on a 7500 Real Time PCR System of Applied Biosystems. […] Amplification of target gene sequences were compared against serial dilutions of know quantities of their purified cDNA fragments, and normalized to the abundance of the house-keeping gene β-actin.

human tyrosinase = target: T1, human tyrosinase (Homo sapiens, UniProt P14679); assay: Tyrosinase-catalyzed oxidation, steady-state kinetics; format: biochemical; set-up: Human tyrosinase was purified to homogeneity from SkMel-28 (1×10^8 cells) following the protocol designed by Yurkow and Laskin (1989); endogenous in cells; host or cells: SkMel-28; details: human tyrosinase from SkMel-28, pH 5.5, 25° C.; read-out: Michaelis-Menten constant (Km)
T1 sequence (P14679 19-529): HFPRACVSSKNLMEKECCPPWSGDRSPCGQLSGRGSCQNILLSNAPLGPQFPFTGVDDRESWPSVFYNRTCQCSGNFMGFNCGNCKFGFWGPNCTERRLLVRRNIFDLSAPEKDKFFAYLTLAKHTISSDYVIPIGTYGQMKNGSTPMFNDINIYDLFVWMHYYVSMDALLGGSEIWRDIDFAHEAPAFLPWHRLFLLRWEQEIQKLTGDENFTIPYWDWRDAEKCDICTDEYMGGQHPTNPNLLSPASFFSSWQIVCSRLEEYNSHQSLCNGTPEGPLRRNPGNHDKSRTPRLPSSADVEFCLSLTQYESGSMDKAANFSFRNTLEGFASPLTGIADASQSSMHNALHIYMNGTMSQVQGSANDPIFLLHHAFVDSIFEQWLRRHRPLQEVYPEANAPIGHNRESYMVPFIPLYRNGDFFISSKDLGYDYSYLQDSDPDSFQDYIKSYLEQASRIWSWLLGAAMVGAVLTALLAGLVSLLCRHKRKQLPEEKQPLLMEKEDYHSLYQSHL
Procedure: The arrow represents the absorbance direction and the time between recordings was 1 min. […] Data was fitted to the Michaelis-Menten equation using non-lineal regression analysis.
Human tyrosinase was purified to homogeneity from SkMel-28 (1×10^8 cells) following the protocol designed by Yurkow and Laskin (1989). TMECG oxidation catalyzed by human tyrosinase was followed using a Perkin-Elmer Lambda-35 spectrophotometer. Steady-state kinetic constants were obtained by measuring the initial rates of TMECG oxidation at 412 nm in 30 mM sodium acetate buffer, pH 5.5 and 25° C.

COc1cc(C(=O)O[C@@H]2Cc3c(O)cc(O)cc3O[C@@H]2c2ccc(O)c(O)c2)cc(OC)c1OC [TMECG, 3-O-(3,4,5-trimethoxybenzoyl)-(−)-epicatechin]
cellular uptake / membrane transport [1]: greater than the uptake of its related natural catechin, ECG | melanosome melanin content (SkMel-28 cells): much less melanin content | reduction in RFC expression [2]: more than 80% | Km (human tyrosinase): 120 ± 20 µM
